# According to paper PMC12037037 (Proceedings of the National Academy of Sciences of the …, 2025):
# Tests used:
# [1] = biological target: 5-HT2A receptor membrane preparations obtained from PSYLI2 cells (Homo sapiens, UniProt P28223); assay: Ligand binding kinetics with [3H]-LSD on PSYLI2 membrane preparations; conditions: kinetics of competition binding vs [3H]-LSD
# Method: Ligand binding kinetics at the 5-HT2AR.
# Data represent the mean ± SEM of 2–3 biological replicates.
# Data represent the mean ± SEM of 2–4 biological replicates.
# Binding buffer consisted of 50 mM Tris HCl, 10 mM MgCl2, 0.1 mM EDTA disodium dihydrate in autoclaved
# deionized water. The solution was adjusted to pH 7.4 with 10 M NaOH(aq) and stored at 4 °C. This solution was used in
# membrane preparation generation as well as competition and kinetics assays.
# free, see 15) were grown in 15-cm plates with Dulbecco’s Modified Eagle Media (DMEM) containing 10% fetal bovine serum and 1% penicillin/streptomycin. When the cells were >90% confluent, the media was removed, and the cells were washed
# with Dulbecco’s Phosphate Buffered Saline (DPBS) (15 mL). Next, DMEM (15 mL) lacking fetal bovine serum and
# penicillin/streptomycin was added, and the cells were serum-starved for 4–12 hours. Roughly 10 mL of the DMEM was
# removed, leaving ~5 mL of media in the plates before placing them on ice. Once on ice, the plates were scraped and the
# contents were transferred to a pre-chilled 50 mL Falcon tube and then centrifuged (2,000 g, 10 min, 4 °C). The supernatant […]
# of 0.25 mL to use for quantification of protein concentration via a Bradford assay with a Coomassie protein assay reagent. […]
# For association binding experiments, total and nonspecific binding was determined by adding binding buffer (2.5X solution, […]
# [2] = system: Thy1-EGFP mice, layer 2/3 of the mPFC; assay: In vivo spinogenesis after chronic corticosterone administration; conditions: chronic CORT (20 mg/kg IP daily, 20 d) + VEH; GH VEH 12.17 ± 0.5278; mean ± SEM
# Method: In Vivo Spinogenesis after chronic corticosterone administration. Male and female Thy1-EGFP mice were given 1 week to acclimate to the new vivarium, then transferred to new cages (individually housed). Once individually housed, the mice were administered corticosterone (20 mg/kg; IP) in DMSO (2 mL/kg) or gently handled daily for 20 days. On day 21, mice were treated with VEH (saline) or (+)-JRT (1 mg/kg; IP). After 24 h, mice were anesthetized with isoflurane and transcardially perfused with paraformaldehyde (PFA, 4% in PBS, 7.4 pH). After extraction of the brains, samples were fixed in 4% PFA at 4° C overnight. The brains were cryo-protected by immersion in a 15% sucrose solution (15% sucrose in PBS w/v) overnight. Next, samples were placed in 30% sucrose solution (30% sucrose in PBS w/v) for at least 1 day. Samples were then embedded in optimal cutting temperature compound (OCT), sliced into 100 µm coronal sections using a cryostat, and mounted on slides which were left in the dark overnight to dry. Coverslips were mounted onto microscope slides using ProLong Gold. Slides were imaged on a Nikon HCA Spinning Disc confocal microscope equipped with a 100x/NA 1.45 oil objective. Images of dendrites and dendritic spines within layer 2/3 of the mPFC were captured and manually counted by a trained experimenter blinded to treatment conditions.
# [3] = system: C57BL/6J mice; assay: Sucrose preference test (SPT) after chronic CORT; type: in vivo; conditions: after 20 d CORT 20 mg/kg IP; baseline 0.7980 ± 0.03533
# Method: remained housed in groups of three for the remainder of the study. All rats were acclimated to the colony room for up to one week prior to dosing. During the period of acclimation, rats were examined and handled daily, and weighed to assure adequate health and suitability. The room temperature was maintained between 20 °C and 23 °C with a relative humidity of 30%–70%. Lab Rodent Diet 5001 (W.F. Fisher, Cat # 11015) and water were provided ad libitum. Animals were randomly assigned across treatment groups. All testing was performed during the light phase of the light/dark cycle. Behavioral testing was conducted according to established protocols approved by the IACUC committee and PGI Standard Operation Procedures (SOP). […] All animals were carefully monitored to ensure their safety in the swim test and any animal unable to maintain a posture with its nose above water was immediately removed from the water and not used further in the study. […] This test lasted for 5 min and was video recorded. A blinded experimenter manually scored the videos for swimming, climbing, and immobility behavior. Scoring of the forced swim test was performed by trained technicians using a time sampling technique in which the animal in the video recorded test was viewed every 5 seconds and the behavior observed was noted (e.g., immobile, swimming, or climbing). […]
# [4] = system: E18 rat embryonic cortical neurons (DIV18-19); assay: Spinogenesis assay using cultured rat cortical neurons; type: cell-based; conditions: compound 1 μM
# [5] = biological target: 5-HT1B (h) (antagonist radioligand); parameters: method as in ref Pharmacological Differentiation and Characterization of 5-HT1A, 5-HT1B, and 5-HT1C Binding Sites in Rat Frontal Cortex; conditions: read-out: Ki of LSD; radioligand 5-HT; Rat cortex; ref Pharmacological Differentiation and Characterization of 5-HT1A, 5-HT1B, and 5-HT1C Binding Sites in Rat Frontal Cortex; cited from earlier work
# [6] = biological target: 5-HT2B (h) (agonist radioligand); conditions: read-out: Ki of LSD; radioligand 5-HT; Human cloned; ref Pharmacological characterisation of the agonist radioligand binding site of 5-HT(2A), 5-HT(2B) and 5-HT(2C) receptors; cited from earlier work
# [7] = biological target: 5-HT5a (h) (agonist radioligand); conditions: read-out: Ki of LSD, Rat cloned, ref Lysergamides of isomeric 2,4-dimethylazetidines map the binding orientation of the diethylamide moiety in the potent hallucinogenic agent N,N-diethyllysergamide (LSD); cited from earlier work
# [8] = biological target: 5-HT7 (h) (agonist radioligand); parameters: method as in Molecular biology of 5-HT receptors; conditions: read-out: Ki of LSD; radioligand 5-HT; Rat cloned; ref Molecular biology of 5-HT receptors; cited from earlier work
# [9] = biological target: alpha 1 (non-selective) (antagonist radioligand); parameters: method as in ref Receptor interaction profiles of novel N-2-methoxybenzyl (NBOMe) derivatives of 2,5-dimethoxy-substituted phenethylamines (2C drugs); conditions: read-out: Ki of LSD; radioligand prazosin; Human cloned; ref Receptor interaction profiles of novel N-2-methoxybenzyl (NBOMe) derivatives of 2,5-dimethoxy-substituted phenethylamines (2C drugs); cited from earlier work
# [10] = biological target: alpha 2 (non-selective) (antagonist radioligand); parameters: method as in ref Receptor interaction profiles of novel N-2-methoxybenzyl (NBOMe) derivatives of 2,5-dimethoxy-substituted phenethylamines (2C drugs); conditions: read-out: Ki of LSD; radioligand Rauwolscine; Human cloned; ref Receptor interaction profiles of novel N-2-methoxybenzyl (NBOMe) derivatives of 2,5-dimethoxy-substituted phenethylamines (2C drugs); cited from earlier work
# [11] = biological target: D1 (h) (antagonist radioligand); parameters: method as in ref Mefloquine and psychotomimetics share neurotransmitter receptor and transporter interactions in vitro; conditions: read-out: Ki of LSD; radioligand SCH 23390; Human cloned; ref Mefloquine and psychotomimetics share neurotransmitter receptor and transporter interactions in vitro; cited from earlier work
# [12] = biological target: D2S (h) (antagonist radioligand); parameters: method as in ref Mefloquine and psychotomimetics share neurotransmitter receptor and transporter interactions in vitro; conditions: read-out: Ki of LSD; radioligand [3H]YM-09151-2; Human cloned; ref Mefloquine and psychotomimetics share neurotransmitter receptor and transporter interactions in vitro; cited from earlier work
# [13] = biological target: beta 1 (h) (agonist radioligand); conditions: read-out: Ki of LSD; radioligand 125I-pindolol; Rat cloned; ref Lysergamides of isomeric 2,4-dimethylazetidines map the binding orientation of the diethylamide moiety in the potent hallucinogenic agent N,N-diethyllysergamide (LSD); cited from earlier work
# Chain of 5-HT2A receptor membrane preparations obtained from PSYLI2 cells (P28223 1-263 limits assumed): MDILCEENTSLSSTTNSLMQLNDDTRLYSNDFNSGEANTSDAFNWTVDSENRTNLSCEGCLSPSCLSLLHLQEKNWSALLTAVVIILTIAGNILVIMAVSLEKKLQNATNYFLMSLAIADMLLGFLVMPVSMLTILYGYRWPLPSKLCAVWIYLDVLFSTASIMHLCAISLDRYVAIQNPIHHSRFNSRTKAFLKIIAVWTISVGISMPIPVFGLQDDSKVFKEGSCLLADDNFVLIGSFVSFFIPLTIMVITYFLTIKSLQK
# Chain of 5-HT2A receptor membrane preparations obtained from PSYLI2 cells (P28223 316-471 limits assumed): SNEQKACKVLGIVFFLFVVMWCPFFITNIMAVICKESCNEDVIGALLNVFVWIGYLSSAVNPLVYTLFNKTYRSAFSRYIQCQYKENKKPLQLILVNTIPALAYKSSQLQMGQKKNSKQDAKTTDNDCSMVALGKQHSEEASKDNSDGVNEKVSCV
structure (smiles),measurement,setting,value
"CCN(CC)CCc1c[nH]c2cc(F)ccc12 [6-F-DET, 6-fluoro-N,N-diethyltryptamine, reference compound]","Dissociation rate from the 5-HT2A receptor, fold faster than LSD",[1],~100 fold
"C[C@]12C[C@H](O)[C@H]3[C@@H](CCC4=CC(=O)CC[C@@]43C)[C@@H]1CC[C@@H]2C(=O)CO [CORT, corticosterone, reference compound]","Dendritic spine density, layer 2/3 mPFC (Table S1, matches Fig. 4N)",[2],8.570 ± 0.4350
same,Sucrose preference post-CORT (Figure 6D),[3],0.5563 ± 0.08424
"CCN(CC)C(=O)[C@@H]1C=C2c3cccc4[nH]cc(c34)C[C@H]2N(C)C1 [LSD, lysergic acid diethylamide]",Effect of ketanserin (10 μM) pretreatment on compound-induced dendritic spine density,[4],blocks
same,Ki,[5],170 nM
same,Ki,[6],0.977 nM
same,Ki,[7],9 nM
same,Ki,[8],200 nM
same,Ki,[9],670 nM
same,Ki,[10],12 nM
same,Ki,[11],273 nM
same,Ki,[12],38 nM
same,Ki,[13],140 nM
